The text below walks through data of US6194395A, “Cyclodextrin cladribine formulations” (Orthro-McNeil Pharmaceutical, Inc., priority 1999, dated 2001).

The structures appear in SMILES notation. In brackets after ≈: the same amount, converted by molar mass. Entries after “also recorded” stand apart in the source; their conditions may differ. Read-outs that look alike come from different tables or passages of the source.

The nature of data set [1]: Solubility of cladribine in water at various HPCD concentrations (HPLC). It is filed as physicochemical. Particulars: for solubility at 120 h: pH 7.3. How it is done: The cylodextrin and the buffer salts were solved in Water for Injection and an excess of Cladribine was added. The solution was shaken during 5 days at room temperature and 4° C. The solution was filtered through a 0.2 μm filter.
The solubility of cladribine in water at various concentrations of 2-Hydroxypropyl-β-Cyclodextrin (HPCD) was measured by high performance liquid chromatography. […] Table 2 sets forth the results of the solubility measurements for the HPCD/cladribine formulation of Example 1.

The conditions of data set [2]: in words, cited from earlier work.
Data set [3] is described as follows: Solubility of cladribine in water at various HPCD concentrations (HPLC). It is filed as physicochemical. The note with it: no HPCD, temperature not stated, read-out: normal solubility of cladribine in water.
Data set [4] is described as follows: Stability of cladribine with/without HPCD at pH 1.4 and 8.2 at room temperature. It is filed as physicochemical.
Procedure: The effect of the HPCD on the stability of cladribine at pH 1.4 and 8.2 at room temperature was measured.

Regarding `Nc1nc(Cl)nc2c1ncn2[C@H]1C[C@H](O)[C@@H](CO)O1` [Cladribine, 2-chloro-2'-deoxyadenosine], the solubility at 120 h worked out at 4.93 mg/mL (≈ 17.3 mM) in data set [1] (10% hp-β-cd in buffered water, pH 7.3, 4° C., 10% HP-β-CD (W/W), read-out: Solubility of Cladribine at 4° C.); 6.4 mg/mL (≈ 22.4 mM) in data set [1] (10% hp-β-cd in buffered water, pH 7.3, RT, 10% HP-β-CD (W/W), read-out: Solubility of Cladribine (mg/ml) at RT); 6.51 mg/mL (≈ 22.8 mM) in data set [1] (15% hp-β-cd in buffered water, pH 7.3, 4° C., 15% HP-β-CD (W/W), read-out: Solubility of Cladribine at 4° C.); 8.47 mg/mL (≈ 29.6 mM) in data set [1] (15% hp-β-cd in buffered water, pH 7.3, RT, 15% HP-β-CD (W/W), read-out: Solubility of Cladribine (mg/ml) at RT); 8.27 mg/mL (≈ 28.9 mM) in data set [1] (20% hp-β-cd in buffered water, pH 7.3, 4° C., 20% HP-β-CD (W/W), read-out: Solubility of Cladribine at 4° C.); 10.5 mg/mL (≈ 36.7 mM) in data set [1] (20% hp-β-cd in buffered water, pH 7.3, RT, 20% HP-β-CD (W/W), read-out: Solubility of Cladribine (mg/ml) at RT). In addition, the solubility at 120 h worked out at 9.91 mg/mL (≈ 34.7 mM) in data set [1] (25% hp-β-cd in buffered water, pH 7.3, 4° C., 25% HP-β-CD (W/W), read-out: Solubility of Cladribine at 4° C.) and 12.4 mg/mL (≈ 43.3 mM) in data set [1] (25% hp-β-cd in buffered water, pH 7.3, RT, 25% HP-β-CD (W/W), read-out: Solubility of Cladribine (mg/ml) at RT). Further, in data set [1] (with cyclodextrin, in words), the “solubility of cladribine in water through use of the cyclodextrin formulation” value is given as “significantly enhanced; also recorded: greatly increased”. The stability in acid result in data set [2] (acidic environment of the gastro-intestinal system) is listed as “acid labile”. In data set [2] (simple saline), the “stability in simple saline solutions” value is “limited stability”. For the same compound, the solubility in water entry in data set [2] (water) is given as “slightly soluble”. For the same compound, the solubility in data set [3] is roughly 4520 µg/mL (≈ 15.8 mM). The “stability against hydrolysis when combined with cyclodextrins” value in data set [4] (combined with cyclodextrins, in words) is “significantly more stable”. The “stability at lower pH when combined with cyclodextrins like HPCD” value in data set [4] (lower pH, with cyclodextrins like HPCD) is reported as “significantly more stable”. In data set [4] (pH 1.4, room temperature, with HPCD versus cladribine solution without HPCD (FIG. 1)), the “stability at pH 1.4” value is “significantly enhanced”.
